Results published in article PMC5768801, “The PII signaling protein from red algae represents an evolutionary link between cyanobacterial and Chloroplastida PII proteins” (Scientific Reports, 2018).
Values joined by “and” are separate entries in the source; they are usually repeats but may differ in a detail not shown here. Equal entries are not always repeated. “Also recorded” adds a separate entry of the source. Where two headings read alike, the source gives them in different places.

Experiments:
PpPII = PpPII (Porphyra purpurea, UniProt P51254); assay: ITC binding of small effector molecules to red algal PpPII
Sequence of PpPII (P51254 whole entry): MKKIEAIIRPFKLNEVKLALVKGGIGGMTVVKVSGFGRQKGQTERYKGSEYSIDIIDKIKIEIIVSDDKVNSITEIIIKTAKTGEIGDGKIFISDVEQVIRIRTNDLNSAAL
Description: (§1) To gain additional insights into the ligand binding properties of PpPII in comparison to cyanobacterial and chloroplastid PII proteins, isothermal titration calorimetry (ITC) experiments were performed using highly purified Strep-tagged or His-tagged recombinant PpPII, SyPII, CrPII, and PhyscoPII proteins (Supplementary Fig. S1) with different protein/ligand/ concentrations to determine the best fitting conditions of the binding model. The titration experiments were repeated with different protein preparations to confirm the reproducibility of the results. The raw isothermal data were fitted into one-binding site as well as three-sequential binding sites to define the best fitting model. Fitting using a one binding site model states an average Kd value for all available binding sites and the mean of the stoichiometry of bound ligands.
(§2) The ITC experiments were done using a VP-ITC microcalorimeter (MicroCal, LCC). All details for determination of binding constants for small effector molecules using ITC are fully described in the supplementary information. Heat isotherms of the dilution of the ligand in the cell buffer were collected in a blank run for each experiment in the absence of protein. The binding isotherms were calculated from received data and fitted to one-site and three-sequential binding sites models using the MicroCal ORIGIN software (Northampton) as described. All titrations were performed in duplicates with different purification batches of recombinant PII proteins. The association binding constant (Ka) was generated from the software by de-convolution and curve fitting. For calculation of dissociation constant (Kd), the Ka value was inversed.
(§3) Supplementary Information […]
(§4) Determination of Binding Constants for Small Effector Molecules using Isothermal […]
(§5) The binding of the small effector molecules to the recombinant PII proteins was tested using isothermal titration calarmity (ITC); VP-ITC microcalorimeter (MicroCal). All titrations were performed on 20°C using […] injection syringe with injection 6 µl or 10 µl of the tested ligands for 45 or 29 times, respectively into the cell (1.4 ml) with continuous stirring at 155 rpm. All tested ligands were high grade, prepared freshly in the same buffer of the protein and purchased from Sigma-Aldrich. Heat isotherms for the dilution of the ligand in the cell buffer were collected in a blank run in the absence of protein. The received calorimetric data were analyzed using MicroCal Origin software and fitted into one-site and three-sequential binding sites models, as indicated by the manufacture for calculation of binding isotherms9. For data reproducibility, the titrations were performed in duplicates with different purification batches of recombinant PII proteins. The association binding constant (Ka) was generated from the software by de-convolution and curve fitting. For calculation of dissociation constant (Kd), the Ka value was inversed.
For determination the binding isotherms of red algal PpPII protein, a buffer system composed of […]
used. For determination ATP and ADP binding isotherms upon the binding to PpPII protein, His- […]
against 2 mM ATP or 2 mM ADP. For determination of ATP and ADP binding isotherms in […]
concentration) was titrated against 0.5 mM of ATP or 1 mM ADP, respectively. However, for […]
of 1 mM of ATP or 1 mM ADP. […]

SyPII [1] = target: T1, SyPII (Synechococcus elongatus, UniProt P0A3F4); assay: ITC binding of small effector molecules to cyanobacterial SyPII; parameters: species or system Synechococcus elongatus PCC 7942
T1 construct: Strep-tag; made in house
T1 sequence (P0A3F4 whole entry): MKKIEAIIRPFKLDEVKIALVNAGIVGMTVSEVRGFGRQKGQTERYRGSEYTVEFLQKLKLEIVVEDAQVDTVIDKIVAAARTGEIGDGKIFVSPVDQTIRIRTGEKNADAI
Description: as §1, §2, §3, §4
as §5, with “inversed. […]” for “inversed.”
For determination the binding isotherms of cyanobacterial SyPII protein, a strep-tagged recombinant protein (20 µM trimeric concentration) was overexpressed and used as described previously9, 15, in a buffer composed of 10 mM Hepes-NaOH, 50 mM KCl, 50 mM NaCl, and 1

CrPII = assay: ITC binding of small effector molecules to green algal CrPII; parameters: species or system Chlamydomonas reinhardtii
Description: as §1, §2, §3, §4
as §5, with “inversed. […]” for “inversed.”

PhyscoPII = assay: ITC binding of small effector molecules to plant-moss PhyscoPII; parameters: species or system Physcomitrella patens
Description: as §1, §2, §3, §4, §5
5 mM MgCl2, 0.5 mM EDTA, and 10% glycerol (pH 7.6). […]
For determination the binding isotherms of plant-moss PhyscoPII protein, a strep-tagged recombinant protein (5 or 6 µM trimeric concentration) was used in system composed of 20 mM

SyPII [2] = target: T1, SyPII; conditions: in presence ADP, given in parentheses for comparison; cited from earlier work
PipX = assay: Pull-down analysis of PipX binding to PII proteins; parameters: species or system Synechocystis sp. PCC 6803; conditions: 10 µM proteins, 1 mM ADP, Strep-Tactin column, Tricine-SDS-PAGE
Description: In cyanobacteria, PipX is the second known receptor of PII signaling. We questioned whether red algal PII proteins have lost or retained the ability to bind to PipX. To test this possibility, we first analyzed complex formation using pull-down experiments (Supplementary Fig. S3A and B). The PII protein from Synechocystis sp. PCC 6803 (ScPII) was mixed with PipX in the presence of ADP and then the Strep-tagged PII was immobilized on the Strep-Tactin II column (Supplementary Fig. S3A). After extensive washes, the proteins were eluted with desthiobiotin and analyzed by Tricine-SDS-PAGE. Both proteins were detected in the elution. Thus, confirming previous studies[16]–[18], cyanobacterial PII was bound to PipX. When PpPII in the presence of PipX was immobilized on the column, no PipX signal was detected in the elution (Supplementary Fig. S3B).
For complex formation, the binding reactions were done in 300 μl of buffer (100 mM Tris HCl, pH 8.0, 150 mM NaCl, 1 mM EDTA) by adding 10 µM of purified proteins: His6-ScPipX and Strep-tag ScPII or Strep-tag PpPII. […] The eluted fractions were analyzed by Tricine-SDS PAGE[51] and stained with SimplyBlue™ SafeStain (Invitrogen).
Figure S3. […] Complex formation between PipX and ScPII (A) or PpPII (B) was assessed by pull-down. […] (C) Complex formation between PipX and PII proteins was assessed by SPR. […]

ScNAGK = target: T2, ScNAGK (Synechocystis sp., UniProt P73326); assay: Coupled NAGK activity assay, ScNAGK; type: biochemical, Synechocystis sp. PCC 6803
T2 sequence (P73326 1-297): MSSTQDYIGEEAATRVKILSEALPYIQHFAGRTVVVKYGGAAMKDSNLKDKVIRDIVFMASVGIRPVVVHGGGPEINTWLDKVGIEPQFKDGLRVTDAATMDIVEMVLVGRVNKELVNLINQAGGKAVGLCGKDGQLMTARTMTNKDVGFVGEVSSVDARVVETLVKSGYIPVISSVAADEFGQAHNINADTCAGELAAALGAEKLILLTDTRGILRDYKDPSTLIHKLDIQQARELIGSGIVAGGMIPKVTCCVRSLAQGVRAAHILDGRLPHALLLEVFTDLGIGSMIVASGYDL
Description: (§6) The assess the activity of ScNAGK was measured with an enzyme assay, in which the ADP production was coupled to the NADH oxidation by the auxiliary enzymes pyruvate kinase and lactate dehydrogenase according to previously described procedure[32],[50]. […] The oxidation reaction of NADH was recorded for 10 min using spectrophotometer (SPECORD 210 PLUS, Analytik Jena AG) at 340 nm. […] The NADH molar absorption coefficient is 6178 L mol^−1 cm^−1 for at 340 nm, which was used for calculation. […] From the velocity slopes, the enzymatic constants Km, Kcat and IC50 were calculated using the Graph-Pad Prism software (GraphPad Software, USA).

PpPII-ScNAGK complex = PpPII-ScNAGK complex (Porphyra purpurea, UniProt P51254); assay: Coupled NAGK activity assay, ScNAGK with PpPII; type: biochemical, Synechocystis sp. PCC 6803; Porphyra purpurea; conditions: ScNAGK in the presence of PpPII, fixed 10 mM ATP
Sequence of PpPII-ScNAGK complex (P51254 whole entry, one chain of several): as the sequence (P51254 whole entry) above
Description: as §6

[3] = titrant alone, read-out: Average Kd (one-site binding model)
[4] = titrant alone, read-out: Kd1 (three-sites binding model)
[5] = titrant alone, read-out: Kd2 (three-sites binding model)
[6] = titrant alone, read-out: Kd3 (three-sites binding model)

Compound: O=C(O)CCC(=O)C(=O)O [2-OG, 2-oxoglutarate]
- N, number of calculated binding sites (one-site binding model) (PpPII; in presence ADP (1 mM)): No binding
- N, number of calculated binding sites (one-site binding model) (PpPII; in presence ATP (1 mM)): 1.0
- N, number of calculated binding sites (one-site binding model) (SyPII [1]; in presence ATP (2 mM)): 1.4
- Average Kd (one-site binding model) (CrPII; in presence ADP (2 mM)): never observed binding; also recorded: No binding
- Kd1 (three-sites binding model) (CrPII; in presence ADP (2 mM)): No binding
- Kd2 (three-sites binding model) (CrPII; in presence ADP (2 mM)): No binding
- Kd3 (three-sites binding model) (CrPII; in presence ADP (2 mM)): No binding
- Kd (CrPII; in presence ATP (2 mM), read-out: Average Kd (one-site binding model)): 15 ± 5.4 µM
- Kd (CrPII; in presence ATP (2 mM), read-out: Kd1 (three-sites binding model)): 4.2 ± 0.7 µM
- Kd (CrPII; in presence ATP (2 mM), read-out: Kd2 (three-sites binding model)): 21.3 ± 11 µM
- Kd (CrPII; in presence ATP (2 mM), read-out: Kd3 (three-sites binding model)): 45.5 ± 19.8 µM
- Average Kd (one-site binding model) (PhyscoPII; in presence ATP (1 mM)): unable to detect any binding; also recorded: No binding
- Kd1 (three-sites binding model) (PhyscoPII; in presence ATP (1 mM)): No binding
- Kd2 (three-sites binding model) (PhyscoPII; in presence ATP (1 mM)): No binding
- Kd3 (three-sites binding model) (PhyscoPII; in presence ATP (1 mM)): No binding
- N, number of calculated binding sites (one-site binding model) (SyPII [2]): (No binding)

Compound: ScPII: PII protein from Synechocystis sp. PCC 6803, recombinant with C-terminal Strep-tag II
- complex formation with PipX (pull-down) (PipX): bound to PipX

Compound: CC(=O)N[C@@H](CCC(=O)O)C(=O)O [NAG, N-acetyl glutamate]
- Kcat (ScNAGK; free ScNAGK, NAG variable substrate, fixed 10 mM ATP): 8.93 ± 1.40 s⁻¹
- Km (ScNAGK; read-out: Km value for N-acetyl glutamate (NAG), free ScNAGK, fixed 10 mM ATP): 16.2 ± 2.14 mM
- Kcat (PpPII-ScNAGK complex; NAG variable substrate): 10.02 ± 1.11 s⁻¹
- Km (PpPII-ScNAGK complex; read-out: apparent Km for NAG): 4.25 ± 0.36 mM

Compound: Nc1ncnc2c1ncn2[C@@H]1O[C@H](COP(=O)(O)OP(=O)(O)OP(=O)(O)O)[C@@H](O)[C@H]1O [ATP]
- Kd (PpPII; Average Kd (one-site binding model), in presence 2-OG (1 mM)): 0.2 ± 0.3 µM
- Kd (PpPII; Average Kd (one-site binding model), titrant alone): ~22 µM and 22 µM
- Kd (PpPII; Kd1 (three-sites binding model), in presence 2-OG (1 mM)): 1.4 ± 1.8 µM
- Kd (PpPII; Kd1 (three-sites binding model), titrant alone): 0.5 ± 0.2 µM
- Kd (PpPII; Kd2 (three-sites binding model), in presence 2-OG (1 mM)): 1 ± 0.9 µM
- Kd (PpPII; Kd3 (three-sites binding model), in presence 2-OG (1 mM)): 83.9 ± 62.4 µM
- Kd (PpPII; Kd3 (three-sites binding model), titrant alone): 142 ± 80.8 µM
- N, number of calculated binding sites (one-site binding model) (PpPII; in presence 2-OG (1 mM)): 1.0
- Kd (PpPII; read-out: Kd2 (three-sites binding model), titrant alone): 18.7 ± 9.2 µM
- N, number of calculated binding sites (one-site binding model) (PpPII; titrant alone, per PII trimer): 2.5
- N, number of calculated binding sites (one-site binding model) (SyPII [1]; in presence 2-OG (1 mM)): 1.8
- Kd (SyPII [1]; in presence 2-OG (1 mM), read-out: Average Kd (one-site binding model)): 2.7 ± 0.1 µM
- Kd (SyPII [1]; in presence 2-OG (1 mM), read-out: Kd1 (three-sites binding model)): 0.5 ± 0.5 µM
- Kd (SyPII [1]; in presence 2-OG (1 mM), read-out: Kd2 (three-sites binding model)): 3 ± 1.7 µM
- Kd (SyPII [1]; in presence 2-OG (1 mM), read-out: Kd3 (three-sites binding model)): 325 ± 171 µM
- N, number of calculated binding sites (one-site binding model) (SyPII [1]; titrant alone): 3.2
- Kd (SyPII [1]; [3]): 43.3 ± 37.7 µM
- Kd (SyPII [1]; [4]): 7.5 ± 7.3 µM
- Kd (SyPII [1]; [5]): 15.9 ± 12.2 µM
- Kd (SyPII [1]; [6]): 85.4 ± 74.6 µM
- Kd (CrPII; in presence 2-OG (2 mM), read-out: Average Kd (one-site binding model)): 35.8 ± 1.6 µM
- Kd (CrPII; in presence 2-OG (2 mM), read-out: Kd1 (three-sites binding model)): 5.8 ± 5.8 µM
- Kd (CrPII; in presence 2-OG (2 mM), read-out: Kd2 (three-sites binding model)): 53.1 ± 58.3 µM
- Kd (CrPII; in presence 2-OG (2 mM), read-out: Kd3 (three-sites binding model)): 61.6 ± 9.7 µM
- Average Kd (one-site binding model) (CrPII; titrant alone): unable to notice any binding; also recorded: No binding
- Kd1 (three-sites binding model) (CrPII; titrant alone): No binding
- Kd2 (three-sites binding model) (CrPII; titrant alone): No binding
- Kd3 (three-sites binding model) (CrPII; titrant alone): No binding
- Kd (PhyscoPII; in presence 2-OG, read-out: Average Kd (one-site binding model)): 17.6 ± 7.5 µM
- Kd (PhyscoPII; in presence 2-OG, read-out: Kd1 (three-sites binding model)): 8 ± 6 µM
- Kd (PhyscoPII; in presence 2-OG, read-out: Kd2 (three-sites binding model)): 16.3 ± 11.4 µM
- Kd (PhyscoPII; in presence 2-OG, read-out: Kd3 (three-sites binding model)): 129 ± 128 µM
- Kd (PhyscoPII; [3]): 26.8 ± 10.5 µM
- Kd (PhyscoPII; [4]): 5.7 ± 1.4 µM
- Kd (PhyscoPII; [5]): 13.6 ± 7.2 µM
- Kd (PhyscoPII; [6]): 48.2 ± 29.3 µM

Compound: N=C(N)NCCC[C@H](N)C(=O)O [arginine]
- IC50 (ScNAGK; read-out: Feedback inhibition of ScNAGK, half maximal inhibitory concentration (IC50)): 6.2 µM
